Source: ChEMBL document CHEMBL4033713, “Click strategy using disodium salts of amino acids improves the water solubility of plinabulin and KPU-300” (Bioorg Med Chem, 2017)
In brackets after ≈: the same amount, converted by molar mass.

Assays:
Liver carboxylesterase [1] = molecular target: T1, Liver carboxylesterase (Sus scrofa, UniProt Q29550); experiment: Drug level treated with Sodium (S)-2-(4-(4-((((3Z,6Z)-6-benzylidene-3-((5-(tertbutyl)-1H-imidazol-4-yl)methylene)-5-oxo-3,4,5,6-tetrahydropyrazin-2-yl)oxy)methoxy)-4-oxobutyl)-1H-1,2,3-triazol-1-yl)pentanedioate assessed as porcine liver carboxylic-ester hydrolase-mediated metabolite formation after 48 hrs by HPLC method; conditions: pig
T1 sequence (Q29550 whole entry): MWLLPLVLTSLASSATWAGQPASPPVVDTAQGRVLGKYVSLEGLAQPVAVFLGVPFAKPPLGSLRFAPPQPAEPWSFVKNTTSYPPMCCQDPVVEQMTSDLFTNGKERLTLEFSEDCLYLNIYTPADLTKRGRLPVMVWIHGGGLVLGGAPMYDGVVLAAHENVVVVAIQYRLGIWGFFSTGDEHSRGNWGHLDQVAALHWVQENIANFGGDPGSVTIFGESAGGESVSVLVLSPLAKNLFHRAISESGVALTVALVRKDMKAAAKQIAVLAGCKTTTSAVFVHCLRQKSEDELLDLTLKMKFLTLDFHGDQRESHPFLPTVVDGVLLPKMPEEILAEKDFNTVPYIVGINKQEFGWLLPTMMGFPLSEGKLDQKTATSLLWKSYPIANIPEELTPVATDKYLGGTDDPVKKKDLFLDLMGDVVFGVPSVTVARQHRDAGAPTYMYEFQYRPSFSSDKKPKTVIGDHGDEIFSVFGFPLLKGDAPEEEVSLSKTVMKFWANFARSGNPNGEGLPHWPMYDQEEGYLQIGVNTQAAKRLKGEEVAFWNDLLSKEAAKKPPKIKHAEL

[2] = Solubility of the compound in distilled water after 15 mins by HPLC method; assay type: physicochemical
Liver carboxylesterase [3] = molecular target: T1, Liver carboxylesterase; experiment: Drug metabolism assessed as porcine liver carboxylic-ester hydrolase-mediated compound hydrolysis by measuring half-life by HPLC analysis; assay type: ADME; conditions: pig, porcine liver carboxylic-ester hydrolase (liver esterase)
Liver carboxylesterase [4] = molecular target: T1, Liver carboxylesterase; experiment: Stability of the compound assessed as porcine liver esterase-mediated hydrolysis by measuring compound remaining after 48 hrs by HPLC method; assay type: ADME; conditions: pig, read-out: Stability
[5] = Solubility of the compound in water; assay type: physicochemical
Liver carboxylesterase [6] = molecular target: T1, Liver carboxylesterase; experiment: Drug metabolism assessed as porcine liver carboxylic-ester hydrolase-mediated compound hydrolysis by measuring half-life at 500 ug by HPLC analysis; assay type: ADME; conditions: pig, porcine liver carboxylic-ester hydrolase (liver esterase)
Liver carboxylesterase [7] = molecular target: T1, Liver carboxylesterase; experiment: Drug level treated with Sodium (S)-2-(4-(4-((((3Z,6Z)-6-benzylidene-3-((5-(tertbutyl)-1H-imidazol-4-yl)methylene)-5-oxo-3,4,5,6-tetrahydropyrazin-2-yl)oxy)methoxy)-4-oxobutyl)-1H-1,2,3-triazol-1-yl)succinate assessed as porcine liver carboxylic-ester hydrolase-mediated metabolite formation after 48 hrs by HPLC method; assay type: ADME; conditions: pig
Liver carboxylesterase [8] = molecular target: T1, Liver carboxylesterase; experiment: Drug level treated with Sodium (S)-2-(4-(4-((((3Z,6Z)-6-(3-benzoylbenzylidene)-5-oxo-3-(pyridine-2-ylmethylene)-3,4,5,6-tetrahydropyrazin-2-yl)oxy)methoxy)-4-oxobutyl)-1H-1,2,3-triazol-1-yl)succinate assessed as porcine liver carboxylic-ester hydrolase-mediated metabolite formation after 48 hrs by HPLC method; assay type: ADME; conditions: pig

Row | solubility at 0.25 h [2] | half-life (Liver carboxylesterase [3]) | SMILES | further results
1 | – | – | C=O [FORMALDEHYDE] | Drug metabolism (Liver carboxylesterase [1]): Metabolite_Detected
2 | 80000 µg/mL (≈ 118000 µM) | 522 min | O=C(O)CC(C(=O)O)n1cc(CCCC(=O)OCOc2n/c(=C\c3cccc(C(=O)c4ccccc4)c3)c(=O)[nH]/c2=C\c2ccccn2)nn1 (single isomer, unassigned) | remaining at 48 h (Liver carboxylesterase [4]): 20%
3 | 590 µg/mL | – | CC(C)(C)c1[nH]cnc1/C=c1\[nH]c(=O)/c(=C/c2ccccc2)nc1OCOC(=O)CCCc1cn(CC(=O)[O-])nn1.[Na+] | –
4 | 7.5 µg/mL (≈ 11.3 µM) | – | CC(C)(C)c1[nH]cnc1/C=c1\[nH]c(=O)/c(=C/c2ccccc2)nc1OCOC(=O)CCCc1cn([C@@H]2O[C@H](CO)[C@H](O)[C@H](O)[C@H]2O)nn1 | –
5 | – | 60 min | CC(C)(C)c1[nH]cnc1/C=c1\[nH]c(=O)/c(=C/c2ccccc2)nc1OCOC(=O)CCCc1cn([C@@H](CO)C(=O)[O-])nn1.[Na+] | solubility [5]: 6380 µg/mL
6 | > 100000 µg/mL | 720 min | CC(C)(C)c1[nH]cnc1/C=c1\[nH]c(=O)/c(=C/c2ccccc2)nc1OCOC(=O)CCCc1cn([C@@H](CC(=O)[O-])C(=O)[O-])nn1.[Na+].[Na+] | –
7 | 850 µg/mL | – | CC(C)(C)c1[nH]cnc1/C=c1\[nH]c(=O)/c(=C/c2ccccc2)nc1OCOC(=O)CCCc1cn(C[C@H](O)CC(=O)[O-])nn1.[Na+] | half-life (Liver carboxylesterase [6]): 22.2 min
8 | – | – | CC(C)(C)c1[nH]cnc1/C=c1\[nH]c(=O)/c(=C/c2ccccc2)[nH]c1=O [PLINABULIN] | solubility [5]: < 0.1 µg/mL; Drug metabolism (Liver carboxylesterase [7]): Metabolite_Detected; Drug metabolism (Liver carboxylesterase [1]): Metabolite_Detected
9 | > 100000 µg/mL | 540 min | CC(C)(C)c1[nH]cnc1/C=c1\[nH]c(=O)/c(=C/c2ccccc2)nc1OCOC(=O)CCCc1cn([C@H](CCC(=O)[O-])C(=O)[O-])nn1.[Na+].[Na+] | –
10 | > 100000 µg/mL | 324 min | CC(C)(C)c1[nH]cnc1/C=c1\[nH]c(=O)/c(=C/c2ccccc2)nc1OCOC(=O)CCCc1cn([C@@H](CCC(=O)[O-])C(=O)[O-])nn1.[Na+].[Na+] | –
11 | – | – | O=C(c1ccccc1)c1cccc(/C=c2\[nH]c(=O)/c(=C/c3ccccn3)[nH]c2=O)c1 | solubility [5]: < 0.1 µg/mL; Drug metabolism (Liver carboxylesterase [8]): Metabolite_Detected
